Assays:
Assay type in all cases: in vivo
Thrips tabaci = Thrips tabaci (Onion Thrips) sunflower leaf disc spray test; conditions: foliar, 168 h, 200 ppm spray on sunflower leaf discs, population of mixed ages, 7 days, mortality
Heliothis virescens = Heliothis virescens (Tobacco Budworm) egg test on artificial diet; conditions: 96 h, 200 ppm (concentration in well 18 ppm), eggs 0-24 h old on artificial diet, 4 days, egg mortality, larval mortality, growth regulation
Spodoptera littoralis = Spodoptera littoralis (Egyptian Cotton Leafworm) cotton leaf disc spray test; conditions: foliar, 72 h, 200 ppm spray on cotton leaf discs, L1 larvae, mortality, feeding behavior, growth regulation 3 DAT
Tetranychus urticae = Tetranychus urticae (Two-Spotted Spider Mite) bean leaf disc spray test; conditions: foliar, 192 h, 200 ppm spray on bean leaf discs, mite populations of mixed ages, 8 days, egg, larval and adult mortality, read-out: control of Tetranychus urticae
Plutella xylostella = Plutella xylostella (Diamond Back Moth) artificial diet MTP test; conditions: 144 h, 200 ppm (concentration in well 18 ppm), L2 larvae, 6 days, larval mortality, growth regulation
Diabrotica balteata = Diabrotica balteata (Corn Root Worm) artificial diet MTP test; conditions: 120 h, 200 ppm (concentration in well 18 ppm), L2 larvae, 5 days, larval mortality, growth regulation

Measured: pest or weed control at 200 ppm

CCc1cc(C(F)(C(F)(F)F)C(F)(F)C(F)(F)F)cc(C)c1NC(=O)c1cccc(NC(=O)c2cc(Cl)ccc2Cl)c1OC (stereo not drawn) [A16]
≥ 80%: Thrips tabaci | Heliothis virescens | Spodoptera littoralis | Tetranychus urticae | Plutella xylostella | Diabrotica balteata

COc1c(NC(=O)c2ccc(F)cc2C)cccc1C(=O)Nc1c(Cl)cc(C(F)(C(F)(F)F)C(F)(F)C(F)(F)F)cc1Br (stereo not drawn) [B9]
≥ 80%: Thrips tabaci | Heliothis virescens | Spodoptera littoralis | Tetranychus urticae | Plutella xylostella | Diabrotica balteata

COc1c(NC(=O)c2snnc2C)cccc1C(=O)Nc1c(Cl)cc(C(F)(C(F)(F)F)C(F)(F)C(F)(F)F)cc1Br (stereo not drawn) [B21]
≥ 80%: Thrips tabaci | Heliothis virescens | Spodoptera littoralis | Tetranychus urticae | Plutella xylostella | Diabrotica balteata

COc1c(NC(=O)c2ccc(Cl)cc2[N+](=O)[O-])cccc1C(=O)Nc1c(Cl)cc(C(F)(C(F)(F)F)C(F)(F)C(F)(F)F)cc1Br (stereo not drawn) [B64]
≥ 80%: Thrips tabaci | Heliothis virescens | Spodoptera littoralis | Tetranychus urticae | Plutella xylostella | Diabrotica balteata

COc1c(NC(=O)c2ccc(Cl)s2)cccc1C(=O)Nc1c(Cl)cc(C(F)(C(F)(F)F)C(F)(F)C(F)(F)F)cc1Br (stereo not drawn) [B67]
≥ 80%: Thrips tabaci | Heliothis virescens | Spodoptera littoralis | Tetranychus urticae | Plutella xylostella | Diabrotica balteata

COc1c(NC(=O)c2cc(F)c(F)cc2Cl)cccc1C(=O)Nc1c(Cl)cc(C(F)(C(F)(F)F)C(F)(F)C(F)(F)F)cc1Br (stereo not drawn) [B73]
≥ 80%: Thrips tabaci | Heliothis virescens | Spodoptera littoralis | Tetranychus urticae | Plutella xylostella | Diabrotica balteata

COc1c(NC(=O)c2cc(C)ccc2[N+](=O)[O-])cccc1C(=O)Nc1c(Cl)cc(C(F)(C(F)(F)F)C(F)(F)C(F)(F)F)cc1Br (stereo not drawn) [B74]
≥ 80%: Thrips tabaci | Heliothis virescens | Spodoptera littoralis | Tetranychus urticae | Plutella xylostella | Diabrotica balteata

COc1c(NC(=O)c2cccnc2C(F)(F)F)cccc1C(=O)Nc1c(Cl)cc(C(F)(C(F)(F)F)C(F)(F)C(F)(F)F)cc1Br (stereo not drawn) [B81]
≥ 80%: Thrips tabaci | Heliothis virescens | Spodoptera littoralis | Tetranychus urticae | Plutella xylostella | Diabrotica balteata

COc1c(NC(=O)c2cc(Cl)nc(Cl)c2)cccc1C(=O)Nc1c(Cl)cc(C(F)(C(F)(F)F)C(F)(F)C(F)(F)F)cc1Br (stereo not drawn) [B97]
≥ 80%: Thrips tabaci | Heliothis virescens | Spodoptera littoralis | Tetranychus urticae | Plutella xylostella | Diabrotica balteata

From US20120295907A1, “INSECTICIDAL COMPOUNDS” (SYNGENTA CROP PROTECTION, LLC, priority 2009, published 2012)
